Tested on: hairless mice
Assay: Evaluation of wrinkle-reducing effect using photoaging model (UVB-irradiated hairless mice, replica wrinkle score)
Assay type: in vivo
Conditions: 0.5% by mass in ethanol (lotion), 100 μL once a day for 8 weeks on dorsal portions after 10 weeks of UVB irradiation; replicas scored visually 1 to 6; vs ethanol control
Protocol: A wrinkle-reducing effect of Cosmetic 1 above was evaluated in a test using a photoaging model.
A total of ten hairless mice, which were six-week-old at the time of the start of a test, were used and divided into two groups each consisting of five mice, i.e., a control group (ethanol solvent administration group) and a sample administration group. The dorsal portions of the hairless mice were irradiated with UVB at a frequency of once a day and three times a week for 10 consecutive weeks to induce photoaging. The UVB irradiation amount was set to 50 mJ/cm^2 for the first week and to 100 mJ/cm^2 on week 2 or later.
In the sample administration group, Cosmetic 1 above was administered to the dorsal portions of the hairless mice. Cosmetic 1 started to be administered to the dorsal portions of the hairless mice on the following day after the completion of the UVB irradiation for 10 weeks, and administered at a dose of 100 μL once a day for 8 weeks. In the control group, the same treatments were performed as those in sample administration group except that ethanol was administered in place of Cosmetic 1 (Lotion 1) in Table 1. […] The scoring operation was performed by three measurers separately and evaluated visually with scores of 1 to 6 at intervals of 0.5. An average value of the results was calculated.

CSCC(NC(=O)c1ccc(C)cc1)C(=O)O (stereo not shown) [Compound 2, [S-methyl-N-toluyl]cysteine]
wrinkle-reducing effect (wrinkle score): excellent wrinkle-reducing effects
